In EP3875590A1, “METHOD FOR PRODUCING ORGANIC COMPOUND AND CORYNEFORM BACTERIUM” (Green Earth Institute Co., Ltd., priority 2018, dated 2020):

How the values were obtained:
leucine dehydrogenase [1] = assay: enzyme kinetics (Michaelis-Menten) of the reductive amination reaction of HOB with purified leucine dehydrogenase; type: biochemical, Lysinibacillus sphaericus; conditions: 100 mM HEPES/KOH (pH 7.5), 200 mM ammonium chloride, 0.2 mM NADH, 3.7 µg/mL leucine dehydrogenase
Protocol: The solution in which the bacterial cells were crushed and which was obtained in 4-6-(1) was subjected to a filtration treatment using a syringe filter with a pore size of 0.2 µm (manufactured by Sartorius AG). Fractionation was performed using an AKTA purifier system (manufactured by GE Healthcare) to which a HisTrap™ FF 1 mL column was connected, and using 50 mM sodium phosphate buffer (pH 8.0), 500 mM sodium chloride, and 10% glycerol as adsorption buffers, and 50 mM sodium phosphate buffer (pH 8.0), 500 mM sodium chloride, 10% glycerol, and 500 mM imidazole as elution buffers. Fractions containing leucine dehydrogenase identified by SDS-PAGE were recovered and concentrated using ultrafiltration. […]
Using the purified leucine dehydrogenase thus obtained, analysis of enzyme kinetics based on the Michaelis-Menten formula using HOB as a substrate was performed. As reaction conditions, 100 mM HEPES/KOH (pH 7.5), 200 mM ammonium chloride, 0.2 mM NADH, and 3.7 µg/mL leucine dehydrogenase were used, and a reaction rate at which a concentration of HOB was 3.13, 6.25, 12.5, 25.0, 50.0, and 100 mM was measured. A reaction rate was calculated by measuring a continuous decrease in absorption by NADH at 340 nm using a Varioskan LUX (manufactured by Thermo Fisher Scientific Inc.). […]

leucine dehydrogenase [2] = assay: oxidative deamination reaction activity against L-homoserine, crushed-cell solution expressing leucine dehydrogenase; type: biochemical, Lysinibacillus sphaericus; conditions: crushed cells of GES1007 (E. coli BL21 (DE3), pGE1148); 100 mM glycine-KCl-KOH (pH 10.0), 2.5 mM NAD^+, 50 mM L-homoserine; NADH absorption at 340 nm
Protocol: Transformation was performed using pGE1148 and using ECOSTM Competent E. coli BL21 (DE3) (manufactured by NIPPON GENE CO., LTD.) according to its instructions, and the obtained strain was designated as GES1007. GES1007 was inoculated into an LB agar medium containing 100 µg/mL of ampicillin under aseptic conditions, and culture was performed at 37°C. Bacterial cells grown on the agar medium were inoculated into 10 mL of an LB medium containing 100 µg/mL of ampicillin, and shaking culture was performed at 37°C to prepare a seed culture solution. This seed culture solution was inoculated into 100 mL of an LB medium containing 100 µg/mL of ampicillin and prepared in a 500 mL flask so that a turbidity was 0.1. Shaking was performed at 37°C, and culture was performed until a turbidity was 0.7. […] When a protein concentration in this solution in which the cells were crushed was measured, it was 12 mg/mL.
Using this solution in which the bacterial cells were crushed, an oxidative deamination reaction activity against L-homoserine was measured. As the reaction conditions, an appropriately diluted solution in which the bacterial cells were crushed was mixed with 100 mM glycine-KCl-KOH (pH 10.0), 2.5 mM NAD^+, and 50 mM L-homoserine, and a continuous increase in absorption by NADH at 340 nm was measured using a Varioskan LUX (manufactured by Thermo Fisher Scientific Inc.). […]

[3] = molecular target: T1, phenylalanine dehydrogenase (Pseudobacillus badius, UniProt Q59224); assay: oxidative deamination reaction activity against L-homoserine, crushed-cell solution expressing phenylalanine dehydrogenase; type: biochemical, Bacillus badius; conditions: crushed cells of GES1136 (E. coli BL21 (DE3), pGE1237); same conditions as 4-6-(1): pH 10.0, 2.5 mM NAD^+, 50 mM L-homoserine
T1 construct: His-tag (pET-15b vector-encoded, with thrombin site); made in house; host or cells: E. coli BL21 (DE3), strain GES1136, plasmid pGE1237 (pET-15b)
Protocol: (§1) Using this solution in which the bacterial cells were crushed, an oxidative deamination reaction activity against L-homoserine was measured. As the reaction conditions, an appropriately diluted solution in which the bacterial cells were crushed was mixed with 100 mM glycine-KCl-KOH (pH 10.0), 2.5 mM NAD^+, and 50 mM L-homoserine, and a continuous increase in absorption by NADH at 340 nm was measured using a Varioskan LUX (manufactured by Thermo Fisher Scientific Inc.). As a result, a specific activity of this solution in which the bacterial cells were crushed against L-homoserine was 0.21 U/mg of protein.
Transformation was performed using pGE1237 and using ECOSTM Competent E. coli BL21 (DE3) (manufactured by NIPPON GENE CO., LTD.) according to its instructions, and the obtained strain was designated as GES 1136. When a protein concentration in a solution, in which the cells were crushed and which was obtained by subj ecting GES1136 to the same operation as that of GES 1007, was measured, it was 11 mg/mL.
As a result of measuring an oxidative deamination reaction activity against L-homoserine in the same manner as in 4-6-(1) using this solution in which the bacterial cells were crushed, a specific activity of this solution in which the bacterial cells were crushed against L-homoserine was 0.045 U/mg of protein.

valine dehydrogenase = molecular target: T2, valine dehydrogenase (Streptomyces fradiae, UniProt P40176); assay: oxidative deamination reaction activity against L-homoserine, crushed-cell solution expressing valine dehydrogenase; type: biochemical; conditions: crushed cells of GES1057 (E. coli BL21 (DE3), pGE1175); same conditions as 4-6-(1): pH 10.0, 2.5 mM NAD^+, 50 mM L-homoserine
T2 construct: His-tag (pET-15b vector-encoded, with thrombin site); made in house; host or cells: E. coli BL21 (DE3), strain GES1057, plasmid pGE1175 (pET-15b)
Protocol: as §1
Transformation was performed using pGE1175 and using ECOSTM Competent E. coli BL21 (DE3) (manufactured by NIPPON GENE CO., LTD.) according to its instructions, and the obtained strain was designated as GES 1057. When a protein concentration in a solution, in which the cells were crushed and which was obtained by subjecting GES1057 to the same operation as that of GES 1007, was measured, it was 4.2 mg/mL.
As a result of measuring an oxidative deamination reaction activity against L-homoserine in the same manner as in 4-6-(1) using this solution in which the bacterial cells were crushed, a specific activity of this solution in which the bacterial cells were crushed against L-homoserine was 0.21 U/mg of protein.

T2 sequence (P40176 whole entry): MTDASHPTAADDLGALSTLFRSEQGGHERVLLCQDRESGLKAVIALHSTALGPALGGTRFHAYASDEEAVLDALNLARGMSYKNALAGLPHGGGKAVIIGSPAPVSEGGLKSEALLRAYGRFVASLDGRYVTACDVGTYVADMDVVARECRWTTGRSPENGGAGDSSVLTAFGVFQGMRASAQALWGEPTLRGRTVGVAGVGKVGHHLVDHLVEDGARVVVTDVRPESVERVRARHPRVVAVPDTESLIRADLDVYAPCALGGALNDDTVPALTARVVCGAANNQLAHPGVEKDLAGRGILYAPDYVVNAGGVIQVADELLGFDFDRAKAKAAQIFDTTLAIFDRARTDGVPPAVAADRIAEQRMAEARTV
T1 sequence (Q59224 whole entry): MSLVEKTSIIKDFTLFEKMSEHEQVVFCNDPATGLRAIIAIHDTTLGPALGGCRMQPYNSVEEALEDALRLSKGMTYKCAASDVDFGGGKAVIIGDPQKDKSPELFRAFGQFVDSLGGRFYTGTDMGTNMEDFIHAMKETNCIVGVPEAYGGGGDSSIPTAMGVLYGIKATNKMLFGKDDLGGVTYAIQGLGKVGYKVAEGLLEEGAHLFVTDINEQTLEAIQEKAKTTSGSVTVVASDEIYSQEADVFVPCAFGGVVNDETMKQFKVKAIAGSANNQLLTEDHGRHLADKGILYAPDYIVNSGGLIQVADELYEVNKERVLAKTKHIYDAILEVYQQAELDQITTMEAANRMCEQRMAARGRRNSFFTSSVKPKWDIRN

| Structure (SMILES) | Km (leucine dehydrogenase [1]; HOB 3.13-100 mM, read-out: Michaelis constant KM for HOB) [mM] | catalyst rotation speed kcat (leucine dehydrogenase [1]; HOB as a substrate) [s⁻¹] | specific activity of this solution in which the bacterial cells were crushed against L-homoserine (leucine dehydrogenase [2]) | specific activity of this solution in which the bacterial cells were crushed against L-homoserine [3] | specific activity of this solution in which the bacterial cells were crushed against L-homoserine (valine dehydrogenase) |
| --- | --- | --- | --- | --- | --- |
| O=C(O)C(=O)CCO [HOB, 4-hydroxy-2-oxobutyric acid] | 7.7 | 2.7 | – | – | – |
| N[C@@H](CCO)C(=O)O [L-homoserine] | – | – | 0.21 U/mg of protein | 0.045 U/mg of protein | 0.21 U/mg of protein |
